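GI50 is the concentration that inhibits growth by half. TGI marks complete inhibition of growth.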
Key:
Assay in all cases: NCI tumour cell line growth inhibition, 384-well format
786-0 renal = tested on: 786-0 renal
A498 renal = tested on: A498 renal
A549 NSCLC = tested on: A549 NSCLC
ACHN renal = tested on: ACHN renal
BT-549 breast = tested on: BT-549 breast
CAKI-1 renal = tested on: CAKI-1 renal
CCRF-CEM leukemia = tested on: CCRF-CEM leukemia
COLO 205 colon = tested on: COLO 205 colon
DU-145 prostate = tested on: DU-145 prostate
EKVX NSCLC = tested on: EKVX NSCLC
HCC-2998 colon = tested on: HCC-2998 colon
HCT-15 colon = tested on: HCT-15 colon
HL-60(TB) leukemia = tested on: HL-60(TB) leukemia
HOP-62 NSCLC = tested on: HOP-62 NSCLC
HOP-92 NSCLC = tested on: HOP-92 NSCLC
HS 578T breast = tested on: HS 578T breast
HT29 colon = tested on: HT29 colon
IGROV1 ovarian = tested on: IGROV1 ovarian
KM12 colon = tested on: KM12 colon
M14 melanoma = tested on: M14 melanoma
MCF7 breast = tested on: MCF7 breast
MDA-MB-231 breast = tested on: MDA-MB-231 breast
MDA-MB-435 melanoma = tested on: MDA-MB-435 melanoma
MDA-MB-468 breast = tested on: MDA-MB-468 breast
MOLT-4 leukemia = tested on: MOLT-4 leukemia
NCI-H226 lung = tested on: NCI-H226 lung
NCI-H23 lung = tested on: NCI-H23 lung
NCI-H322M lung = tested on: NCI-H322M lung
NCI-H460 NSCLC = tested on: NCI-H460 NSCLC
NCI-H522 lung = tested on: NCI-H522 lung
NCI/ADR-RES ovarian = tested on: NCI/ADR-RES ovarian
OVCAR-3 ovarian = tested on: OVCAR-3 ovarian
OVCAR-4 ovarian = tested on: OVCAR-4 ovarian
OVCAR-5 ovarian = tested on: OVCAR-5 ovarian
OVCAR-8 ovarian = tested on: OVCAR-8 ovarian
PC-3 prostate = tested on: PC-3 prostate
RPMI-8226 leukemia = tested on: RPMI-8226 leukemia
RXF 393 renal = tested on: RXF 393 renal
SF-268 CNS = tested on: SF-268 CNS
SF-295 CNS = tested on: SF-295 CNS
SF-539 CNS = tested on: SF-539 CNS
SK-MEL-2 melanoma = tested on: SK-MEL-2 melanoma
SK-MEL-28 melanoma = tested on: SK-MEL-28 melanoma
SK-MEL-5 melanoma = tested on: SK-MEL-5 melanoma
SK-OV-3 ovarian = tested on: SK-OV-3 ovarian
SN12C renal = tested on: SN12C renal
SNB-19 CNS = tested on: SNB-19 CNS
SNB-75 CNS = tested on: SNB-75 CNS
SR leukemia = tested on: SR leukemia
SW-620 colon = tested on: SW-620 colon
T-47D breast = tested on: T-47D breast
TK-10 renal = tested on: TK-10 renal
U251 glioblastoma = tested on: U251 glioblastoma
UACC-257 melanoma = tested on: UACC-257 melanoma
UACC-62 melanoma = tested on: UACC-62 melanoma

## O=C1c2ccccc2-c2n[nH]c3cccc1c23
786-0 renal
  GI50: 19.2 µM
  TGI: > 100 µM
A498 renal
  GI50: 3 µM
  TGI: 84.6 µM
A549 NSCLC
  GI50: 15.8 µM
  TGI: > 100 µM
ACHN renal
  GI50: 11 µM
  TGI: 46.8 µM
BT-549 breast
  GI50: 3.72 µM
  TGI: 49.7 µM
CAKI-1 renal
  GI50: 3.39 µM
  TGI: 14.9 µM
CCRF-CEM leukemia
  GI50: 6 µM
  TGI: 25.2 µM
COLO 205 colon
  GI50: 10.3 µM
  TGI: 26 µM
DU-145 prostate
  GI50: 14.7 µM
  TGI: > 100 µM
EKVX NSCLC
  GI50: 4.49 µM
  TGI: > 100 µM
HCC-2998 colon
  GI50: 3.74 µM
  TGI: 43.5 µM
HCT-15 colon
  GI50: 4.63 µM
  TGI: > 100 µM
HL-60(TB) leukemia
  GI50: 10.4 µM
  TGI: > 100 µM
HOP-62 NSCLC
  GI50: 14.8 µM
  TGI: 69.1 µM
HOP-92 NSCLC
  GI50: 20 µM
  TGI: > 100 µM
HS 578T breast
  GI50: 5.63 µM
  TGI: 71.2 µM
HT29 colon
  GI50: 11.4 µM
  TGI: > 100 µM
IGROV1 ovarian
  GI50: 4.82 µM
  TGI: 64.6 µM
KM12 colon
  GI50: 2.78 µM
  TGI: > 100 µM
M14 melanoma
  GI50: 5.93 µM
  TGI: 58.9 µM
MCF7 breast
  GI50: 37.4 µM
  TGI: > 100 µM
MDA-MB-231 breast
  GI50: 13.9 µM
  TGI: > 100 µM
MDA-MB-435 melanoma
  GI50: 17.4 µM
  TGI: > 100 µM
MDA-MB-468 breast
  GI50: 2.72 µM
  TGI: 12.5 µM
MOLT-4 leukemia
  GI50: 1.74 µM
  TGI: 3.76 µM
NCI-H226 lung
  GI50: 2.26 µM
  TGI: 11.7 µM
NCI-H23 lung
  GI50: 19.8 µM
  TGI: > 100 µM
NCI-H322M lung
  GI50: 32.4 µM
  TGI: > 100 µM
NCI-H460 NSCLC
  GI50: 6.56 µM
  TGI: 37.6 µM
NCI-H522 lung
  GI50: 7.22 µM
  TGI: 53.5 µM
NCI/ADR-RES ovarian
  GI50: 53.9 µM
  TGI: > 100 µM
OVCAR-3 ovarian
  GI50: 20.2 µM
  TGI: > 100 µM
OVCAR-4 ovarian
  GI50: 32 µM
  TGI: > 100 µM
OVCAR-5 ovarian
  GI50: 17.8 µM
  TGI: > 100 µM
OVCAR-8 ovarian
  GI50: 22.1 µM
  TGI: > 100 µM
PC-3 prostate
  GI50: 20.8 µM
  TGI: > 100 µM
RPMI-8226 leukemia
  GI50: 4.09 µM
  TGI: 30 µM
RXF 393 renal
  GI50: 11.7 µM
  TGI: 81.4 µM
SF-268 CNS
  GI50: 5.72 µM
  TGI: 57 µM
SF-295 CNS
  GI50: 34.1 µM
  TGI: > 100 µM
SF-539 CNS
  GI50: 8.72 µM
  TGI: 97.4 µM
SK-MEL-2 melanoma
  GI50: 5.03 µM
  TGI: 17 µM
SK-MEL-28 melanoma
  GI50: 74.8 µM
  TGI: > 100 µM
SK-MEL-5 melanoma
  GI50: 5.77 µM
  TGI: 26.6 µM
SK-OV-3 ovarian
  GI50: 3.03 µM
  TGI: 14.6 µM
SN12C renal
  GI50: 23.3 µM
  TGI: > 100 µM
SNB-19 CNS
  GI50: 45.1 µM
  TGI: > 100 µM
SNB-75 CNS
  GI50: 1.87 µM
  TGI: 41.5 µM
SR leukemia
  GI50: 2.38 µM
  TGI: 6.99 µM
SW-620 colon
  GI50: 11.7 µM
  TGI: > 100 µM
T-47D breast
  GI50: 21.5 µM
  TGI: > 100 µM
TK-10 renal
  GI50: 4.21 µM
  TGI: > 100 µM
U251 glioblastoma
  GI50: 9.02 µM
  TGI: > 100 µM
UACC-257 melanoma
  GI50: 27.9 µM
  TGI: > 100 µM
UACC-62 melanoma
  GI50: 15.5 µM
  TGI: > 100 µM
